Results reported in US8734837B2, “Enhancement of development of oviparous species by in ovo feeding of enteric modulators” (North Carolina State University, priority 2000, dated 2014).

Experiments:
Type in all cases: in vivo
[1] = Hatchability rate of turkey poults by HMB dosage injected in ovo (Example 10, FIG. 6)
Description: (§1) Three hundred commercial turkey eggs were stored for three weeks in a cooler at 55° F. and then placed in an egg incubator. After 24 days of incubation, eggs identified as fertile by candling the eggs were randomly assigned to 5 groups of 50 eggs. Each group of 50 eggs was then injected into the air cell at a depth of 0.25 inches with a 0.10 ml saline (0.89% NaCl) solution containing 0, 0.1, 1.0, 10.0, and 100.0 milligrams of Ca-HMB.
(§2) After injection, the eggs were placed in hatching baskets such that each treatment was equally represented in each location of the incubator. Hatched poults were recovered from the incubator at 28 days of incubation and the number of hatched poults per treatment group recorded. The hatched poults were then sacrificed and blood glucose was determined in accordance with known techniques (see Donaldson and Christensen, Comp. Biochem. Physiol. 98A, 347-350 (1991)). Livers were removed and glycogen content of each liver was determined by known techniques (see Dreiling et al., Meat Sci. 20, 167-177 (1987)).

[2] = Plasma glucose of turkey poults by HMB dosage injected in ovo (Example 10, FIG. 8); settings: turkey poults at hatch
Description: as §1, §2

[3] = Liver glycogen of turkey poults by HMB dosage injected in ovo (Example 10, FIG. 7); settings: turkey poults at hatch; all HMB dosage levels (0.1-100.0 milligrams)
Description: as §1, §2

CC(C)(O)CC(=O)O [HMB, beta-hydroxy-beta-methylbutyrate]
Hatchability rate ([1]; turkey eggs stored 3 weeks, 0.1 and 1.0 milligrams HMB in 0.1 ml saline into air cell at 24 days of incubation, control 72.3%): 81.6%
Hatchability rate (in words) ([1]; turkey eggs, HMB injected above 1.0 milligrams): hatchability rate decreased
Plasma glucose concentration (in words) ([2]; 0.1 milligram HMB dosage): significantly increased plasma glucose concentration
Plasma glucose concentration (in words) ([2]; other HMB dosage levels (1.0, 10.0, 100.0 milligrams)): no significant effect on plasma glucose
Liver glycogen content, increase compared with the control treatment [3]: about 40%
